Measured values reported in patent US8420571B2, “Synergistic herbicidal composition containing fluroxypyr and cyhalofop, metamifop or profoxydim” (Dow AgroSciences, LLC, priority 2009, dated 2013).
Values joined by “and” are separate entries in the source; they are usually repeats but may differ in a detail not shown here. Identical values can stand only once.

Columns and labels:
Assay type in all cases: in vivo
[1] = system: tighthead sprangletop (Leptochloa panicoides; LEFPA); assay: Postemergence herbicidal activity of mixtures in the field (drill-seeded rice), visual weed control; settings: 29-36 DAA, Table 3
Experimental: (§1) Evaluation of Postemergence Herbicidal Activity of Mixtures in the Field
(§2) Field trials were conducted in drill-seeded rice using standard herbicide small plot research methodology. Plots were typically 3×10 meters (m, width×length) in size with 4 replicates per treatment. The rice crop was grown using normal cultural practices for fertilization, seeding, watering, flooding and maintenance to ensure good growth of the crop and the weeds.
(§3) All treatments in the field trials were applied using a carbon dioxide (CO2) backpack sprayer calibrated to apply 187 L/ha spray volume. Commercially available products of cyhalofop-butyl and fluoroxypyr-meptyl were mixed in water at appropriately formulated product rates to achieve the desired rates based on a unit area of application (hectare) to achieve the desired application rates as shown. Treatments were rated at 29 to 36 days after application (DAA) as compared to the untreated control plants. Percent visual weed control was scored on a scale of 0 to 100 percent where 0 corresponds to no injury and 100 corresponds to complete kill.
(§4) All treatment results, both for the single product and mixtures, are an average of 4 replicates and the tank mix interactions are significant at the […] level using Tukey's T-test.
(§5) Colby's equation was used to determine the herbicidal effects expected from the mixtures (Colby, S. R. Calculation of the synergistic and antagonistic response of herbicide combinations. Weeds 1967, 15, 20-22.).
(§6) The following equation was used to calculate the expected activity of mixtures containing two active ingredients, A and B: Expected=A+B−(A×B/100)
(§7) A=observed efficacy of active ingredient A at the same concentration as used in the mixture.
(§8) B=observed efficacy of active ingredient B at the same concentration as used in the mixture.

[2] = system: barnyardgrass (Echinochloa crus-galli; ECHCG); assay: as above; settings: 29-36 DAA, Table 3
Experimental: as §1, §2, §3, §4, §5, §6, §7, §8

[3] = system: barnyardgrass (Echinochloa crus-galli; ECHCG); assay: Postemergence herbicidal activity of mixtures in the greenhouse, visual weed control
Experimental: (§9) Evaluation of Postemergence Herbicidal Activity of Mixtures in the Greenhouse
(§10) Seeds of the desired test plant species were planted in 80% mineral soil/20% grit planting mixture, which typically has a pH of 7.2 and an organic matter content of about 2.9 percent, in plastic pots with a surface area of 128 square centimeters (cm^2). The growing medium was steam sterilized. The plants were grown for 7-19 days in a greenhouse with an approximate 14-hour (h) photoperiod which was maintained at about 29° C. during the day and 26° C. during the night. Nutrients and water were added on a regular basis and supplemental lighting was provided with overhead metal halide 1000-Watt lamps as necessary. The plants were treated with postemergence foliar applications when they reached the third to fourth true leaf stage. All treatments were applied using a randomized complete block trial design, with 4 replications per treatment.
(§11) Treatments consisted of the compounds as listed in Tables 1, 2, 4 and 5 with each compound applied alone and in combination. Formulated amounts of cyhalofop-butyl, metamifop, profoxydim and fluoroxypyr-meptyl ester, were placed in 60 milliliter (mL) glass vials and dissolved in a volume of 60 mL of a water solution containing Agri-dex crop oil concentrate in a 1% volume per volume (v/v) ratio. Compound requirements are based upon a 12 mL application volume at a rate of 187 liters per hectare (L/ha). Spray solutions of the mixtures were prepared by adding the stock solutions to the appropriate amount of dilution solution to form 12 mL spray solution with active ingredients in single and two way combinations. Formulated compounds were applied to the plant material with an overhead Mandel track sprayer equipped with 8002E nozzles calibrated to deliver 187 L/ha at a spray height of 18 inches ([…] (cm)) above average plant canopy.
(§12) The treated plants and control plants were placed in a greenhouse as described above and watered by sub-irrigation to prevent wash-off of the test compounds. Treatments were rated at 14 to 21 days after application as compared to the untreated control plants. Percent visual weed control was scored on a scale of 0 to 100 percent where 0 corresponds to no injury and 100 corresponds to complete kill.
as §5, §6, §7, §8

[4] = system: broadleaf signalgrass (Brachiaria platyphylla; BRAPP); assay: as above
Experimental: as §9, §10, §11, §12, §5, §6, §7, §8

[5] = system: Chinese sprangletop (Leptochloa chinensis; LEFCH); assay: as above; settings: 21 DAA
Experimental: as §9, §10, §11, §12, §5, §6, §7, §8

[6] = system: giant foxtail (Setaria faberi; SETFA); assay: as above; settings: 21 DAA, Table 2
Experimental: as §9, §10, §11, §12, §5, §6, §7, §8

[7] = system: winklegrass (Ischaemum rugosum; ISCRU); assay: as above; settings: 14 DAA, Table 1
Experimental: as §9, §10, §11, §12, §5, §6, §7, §8

[8] = Fluroxypyr 50 g ae/ha alone, 21 DAA, Table 4
[9] = Fluroxypyr 70 g ae/ha alone, 14 DAA, Table 1
[10] = Fluroxypyr 100 g ae/ha alone, 21 DAA, Table 4
[11] = Fluroxypyr 200 g ae/ha alone, 21 DAA, Table 4
[12] = Metamifop 7.5 g ai/ha alone, 21 DAA, Table 4
[13] = Metamifop 15 g ai/ha alone, 21 DAA, Table 4

For `Nc1c(Cl)c(F)nc(OCC(=O)O)c1Cl` [Fluroxypyr, [(4-amino-3,5-dichloro-6-fluoro-2-pyridinyl)oxy]acetic acid], the “% Control LEFPA Ob” value ([1]; Fluroxypyr 190 g ae/ha alone) was 0%, the “% Control LEFPA Ob” value ([1]; Fluroxypyr 290 g ae/ha alone) was 3% and the “% Control LEFPA Ob” value ([1]; Fluroxypyr 580 g ae/ha alone) was 0%. The “% Control ECHCG Ob” value ([2]; Fluroxypyr 580 g ae/ha alone) was 0%, the “% Control ECHCG Ob” value [3, 8] was 0% and the “% Control ECHCG Ob” value ([3]; Fluroxypyr 50 g ae/ha alone, 21 DAA, Table 5) was 0%. For the same compound, the “% Control ECHCG Ob” value [3, 9] was 14%, the “% Control ECHCG Ob” value [3, 10] was 11% and the “% Control ECHCG Ob” value ([3]; Fluroxypyr 100 g ae/ha alone, 21 DAA, Table 5) was 0%. For the same compound, the “% Control ECHCG Ob” value ([3]; Fluroxypyr 140 g ae/ha alone, 14 DAA, Table 1) was 9%, the “% Control ECHCG Ob” value [3, 11] was 6% and the “% Control ECHCG Ob” value ([3]; Fluroxypyr 200 g ae/ha alone, 21 DAA, Table 5) was 5%. The “% Control ECHCG Ob” value ([3]; Fluroxypyr 280 g ae/ha alone, 14 DAA, Table 1) was 8%, the “% Control BRAPP Ob” value [4, 8] was 5% and the “% Control BRAPP Ob” value [4, 9] was 22%. For the same compound, the “% Control BRAPP Ob” value [4, 10] was 1%, the “% Control BRAPP Ob” value [4, 11] was 5% and the “% Control LEFCH Ob” value ([5]; Fluroxypyr 50 g ae/ha alone, Table 4) was 6%. For the same compound, the “% Control LEFCH Ob” value ([5]; Fluroxypyr 70 g ae/ha alone, Table 2) was 28%, the “% Control LEFCH Ob” value ([5]; Fluroxypyr 100 g ae/ha alone, Table 5) was 41% and the “% Control LEFCH Ob” value ([5]; Fluroxypyr 140 g ae/ha alone, Table 2) was 5%. For the same compound, the “% Control LEFCH Ob” value ([5]; Fluroxypyr 200 g ae/ha alone, Table 4) was 41%, the “% Control LEFCH Ob” value ([5]; Fluroxypyr 200 g ae/ha alone, Table 5) was 48% and 49% and the “% Control SETFA Ob” value ([6]; Fluroxypyr 140 g ae/ha alone) was 50%. The “% Control ISCRU Ob” value ([7]; Fluroxypyr 140 g ae/ha alone) was 15%.

For `C[C@@H](Oc1ccc(Oc2ccc(C#N)cc2F)cc1)C(=O)O` [Cyhalofop, (2R)-2-[4-(4-cyano-2-fluorophenoxy)phenoxy]-propanoic acid], the “% Control LEFPA Ob” value ([1]; Cyhalofop 262 g ae/ha alone) was 33%, the “% Control ECHCG Ob” value ([2]; Cyhalofop 262 g ae/ha alone) was 67% and the “% Control ECHCG Ob” value ([3]; Cyhalofop 63 g ae/ha alone, 14 DAA, Table 1) was 55%. For the same compound, the “% Control ECHCG Ob” value ([3]; Cyhalofop 126 g ae/ha alone, 14 DAA, Table 1) was 73%, the “% Control BRAPP Ob” value ([4]; Cyhalofop 253 g ae/ha alone, 14 DAA, Table 1) was 77% and the “% Control LEFCH Ob” value ([5]; Cyhalofop 63 g ae/ha alone, Table 2) was 67%. The “% Control SETFA Ob” value ([6]; Cyhalofop 63 g ae/ha alone) was 82% and the “% Control ISCRU Ob” value ([7]; Cyhalofop 126 g ae/ha alone) was 15%.

For `C[C@@H](Oc1ccc(Oc2nc3ccc(Cl)cc3o2)cc1)C(=O)N(C)c1ccccc1F` [Metamifop, (2R)-2-[4-[(6-chloro-2-benzoxazolyl)oxy]-phenoxy]-N-(2-fluorophenyl)-N-methylpropanamide], the “% Control ECHCG Ob” value [3, 12] was 5%, the “% Control ECHCG Ob” value [3, 13] was 33% and the “% Control ECHCG Ob” value ([3]; Metamifop 30 g ai/ha alone, 21 DAA, Table 4) was 74%. The “% Control BRAPP Ob” value [4, 12] was 25%, the “% Control BRAPP Ob” value [4, 13] was 54% and the “% Control LEFCH Ob” value ([5]; Metamifop 7.5 g ai/ha alone, Table 4) was 23%. For the same compound, the “% Control LEFCH Ob” value ([5]; Metamifop 30 g ai/ha alone, Table 4) was 88%.

`CCCC(=NOCC(C)Oc1ccc(Cl)cc1)C1=C(O)CC(C2CCCSC2)CC1=O` (stereo not shown) [Profoxydim, 2-[1-[[2-(4-chlorophenoxy)propoxy]imino]-butyl]-3-hydroxy-5-(tetrahydro-2H-thiopyran-3-yl)-2-cyclohexen-1-one] was tested, and the “% Control ECHCG Ob” value ([3]; Profoxydim 25 g ai/ha alone, 21 DAA, Table 5) was 54%, the “% Control LEFCH Ob” value ([5]; Profoxydim 25 g ai/ha alone, Table 5) was 61% and the “% Control LEFCH Ob” value ([5]; Profoxydim 50 g ai/ha alone, Table 5) was 78%.
